Values of other authors in US5352587A, “Compositions and methods for the synthesis of natriuretic protein receptor B and methods of use” (Genentech, Inc., priority 1991, dated 1994).

Test system: membrane GC
Settings: literature refs 14, 15; cited from earlier work

Nc1ncnc2c1ncn2[C@@H]1O[C@H](COP(=O)(O)OP(=O)(O)OP(=O)(O)O)[C@@H](O)[C@H]1O [ATP]
effect on Vmax of membrane GC in response to ANP stimulation: increasing the Vmax of membrane GC in response to ANP stimulation
